In brackets after ≈: the same amount, converted by molar mass. Activity calls are given as the source filed them. The rule behind the calls is not given here.
Tests used:
[1] = Selectivity index, ratio of CC50 for African green monkey Vero cells to MIC for antifungal activity against fluconazole-resistant Candida auris 381; format: toxicity; conditions: read-out: Selectivity Index
Escherichia coli [2] = assay: Antibacterial activity against Escherichia coli BW25113 assessed as reduction in bacterial growth by CLSI based broth microdilution method; format: functional
[3] = system: Cryptococcus gattii species complex; assay: Antifungal activity against Cryptococcus gattii NR43210 assessed as reduction in fungal growth incubated for 48 hrs by CLSI based broth microdilution method; format: functional, Cryptococcus bacillisporus
[4] = Selectivity index, ratio of maximum non-toxic concentration for human Caco-2 cells to MIC for antifungal activity against fluconazole-resistant Candida auris 383; format: toxicity; conditions: read-out: Selectivity Index
Lactobacillus gasseri = assay: Antibacterial activity against Lactobacillus gasseri HM-400 assessed as reduction in bacterial growth by CLSI based assay
Aspergillus fumigatus [5] = assay: Antifungal activity against Aspergillus fumigatus NR 35304 assessed as reduction in fungal growth incubated for 24 hrs by CLSI based broth microdilution method; format: functional
[6] = Selectivity index, ratio of maximum non-toxic concentration for human Caco-2 cells to MIC for antifungal activity against Candida krusei CAB 396420; format: toxicity; conditions: read-out: Selectivity Index
Pichia kudriavzevii [7] = assay: Antifungal activity against Candida krusei ATCC 34135 assessed as reduction in fungal growth incubated for 24 hrs by CLSI based broth microdilution method; format: functional
Escherichia coli [8] = assay: Antibacterial activity against Escherichia coli JW55031 harboring tolC mutation assessed as reduction in bacterial growth by CLSI based broth microdilution method; format: functional
Candida parapsilosis [9] = assay: Antifungal activity against Candida parapsilosis ATCC 22019 assessed as reduction in fungal growth incubated for 24 hrs by CLSI based broth microdilution method; format: functional; conditions: Lodderomyces parapsilosis
[10] = Selectivity index, ratio of maximum non-toxic concentration for human Caco-2 cells to MIC for antifungal activity against Aspergillus fumigatus NR 35304; format: toxicity; conditions: read-out: Selectivity Index
Candida albicans [11] = assay: Fungistatic activity against Candida albicans SS5314 at 5 to 10x MIC measured for 36 hrs by time kill assay; format: functional, organism-based
Candida albicans [12] = assay: Antifungal activity against fluconazole-resistant Candida albicans NR29448 assessed as reduction in fungal growth incubated for 24 hrs by CLSI based broth microdilution method; format: functional
Candida albicans [13] = assay: Antifungal activity against Candida albicans SS5314 assessed as reduction in fungal growth by CLSI based broth microdilution method; format: functional
[14] = Selectivity index, ratio of maximum non-toxic concentration for human Caco-2 cells to MIC for antifungal activity against Cryptococcus gattii NR43210; format: toxicity; conditions: read-out: Selectivity Index
Candida parapsilosis [15] = assay: Antifungal activity against Candida parapsilosis CAB 502638 assessed as reduction in fungal growth incubated for 24 hrs by CLSI based broth microdilution method; format: functional; conditions: Lodderomyces parapsilosis
[16] = Selectivity index, ratio of CC50 for African green monkey Vero cells to MIC for antifungal activity against fluconazole-resistant Candida auris 383; format: toxicity; conditions: read-out: Selectivity Index
Cryptococcus neoformans [17] = assay: Antifungal activity against Cryptococcus neoformans NR48770 assessed as reduction in fungal growth incubated for 48 hrs by CLSI based broth microdilution method; format: functional
[18] = Selectivity index, ratio of CC50 for African green monkey Vero cells to MIC for antifungal activity against Candida parapsilosis CAB 502638; format: toxicity; conditions: read-out: Selectivity Index
Candida albicans [19] = assay: Antifungal activity against Candida albicans SS5314 assessed as reduction in fungal growth measured after 10 passages by CLSI based broth microdilution method; format: functional, organism-based
[20] = Selectivity index, ratio of maximum non-toxic concentration for human Caco-2 cells to MIC for antifungal activity against fluconazole-resistant Candida auris 381; format: toxicity; conditions: read-out: Selectivity Index
Pichia kudriavzevii [21] = assay: Antifungal activity against Candida krusei CAB 396420 assessed as reduction in fungal growth incubated for 24 hrs by CLSI based broth microdilution method; format: functional
Aspergillus fumigatus [22] = assay: Antifungal activity against Aspergillus fumigatus NR 35303 assessed as reduction in fungal growth incubated for 24 hrs by CLSI based broth microdilution method; format: functional
[23] = Selectivity index, ratio of CC50 for African green monkey Vero cells to MIC for antifungal activity against Candida parapsilosis ATCC 22019; format: toxicity; conditions: read-out: Selectivity Index
[24] = Cytotoxicity against African green monkey Vero cells assessed as reduction in cell viability incubated for 2 hrs by MTS assay; format: cell-based; conditions: chlorocebus sabaeus
[25] = Selectivity index, ratio of maximum non-toxic concentration for human Caco-2 cells to MIC for antifungal activity against Candida glabrata ATCC 66032; format: toxicity; conditions: read-out: Selectivity Index
[26] = Selectivity index, ratio of maximum non-toxic concentration for human Caco-2 cells to MIC for antifungal activity against Cryptococcus gattii NR43209; format: toxicity; conditions: read-out: Selectivity Index
[27] = Selectivity index, ratio of CC50 for African green monkey Vero cells to MIC for antifungal activity against fluconazole-resistant Candida albicans NR29448; format: toxicity; conditions: read-out: Selectivity Index
[28] = Selectivity index, ratio of CC50 for African green monkey Vero cells to MIC for antifungal activity against Candida albicans ATCC 10231; format: toxicity; conditions: read-out: Selectivity Index
Nakaseomyces glabratus [29] = assay: Antifungal activity against Candida glabrata ATCC 66032 assessed as reduction in fungal growth incubated for 24 hrs by CLSI based broth microdilution method; format: functional
[30] = Selectivity index, ratio of maximum non-toxic concentration for human Caco-2 cells to MIC for antifungal activity against Candida parapsilosis ATCC 22019; format: toxicity; conditions: read-out: Selectivity Index
[31] = Selectivity index, ratio of maximum non-toxic concentration for human Caco-2 cells to MIC for antifungal activity against Candida krusei ATCC 34135; format: toxicity; conditions: read-out: Selectivity Index
[32] = Selectivity index, ratio of maximum non-toxic concentration for human Caco-2 cells to MIC for antifungal activity against Candida glabrata ATCC MYA-2950; format: toxicity; conditions: read-out: Selectivity Index
[33] = Selectivity index, ratio of CC50 for African green monkey Vero cells to MIC for antifungal activity against Cryptococcus neoformans NR41300; format: toxicity; conditions: read-out: Selectivity Index
[34] = Selectivity index, ratio of maximum non-toxic concentration for human Caco-2 cells to MIC for antifungal activity against Cryptococcus neoformans NR41298; format: toxicity; conditions: read-out: Selectivity Index
[35] = Selectivity index, ratio of CC50 for African green monkey Vero cells to MIC for antifungal activity against Aspergillus fumigatus NR 35303; format: toxicity; conditions: read-out: Selectivity Index
[36] = Selectivity index, ratio of maximum non-toxic concentration for human Caco-2 cells to MIC for antifungal activity against fluconazole-resistant Candida auris 384; format: toxicity; conditions: read-out: Selectivity Index
[Candida] auris [37] = Antifungal activity against fluconazole-resistant Candida auris 383 assessed as reduction in fungal growth incubated for 24 hrs by CLSI based broth microdilution method; format: functional; conditions: Candidozyma auris
[38] = Selectivity index, ratio of CC50 for African green monkey Vero cells to MIC for antifungal activity against Candida glabrata ATCC MYA-2950; format: toxicity; conditions: read-out: Selectivity Index
Candida albicans [39] = assay: Antifungal activity against Candida albicans ATCC 10231 assessed as reduction in fungal growth incubated for 24 hrs by CLSI based broth microdilution method; format: functional
[Candida] auris [40] = Antifungal activity against fluconazole-resistant Candida auris 381 assessed as reduction in fungal growth incubated for 24 hrs by CLSI based broth microdilution method; format: functional; conditions: Candidozyma auris
Cryptococcus neoformans [41] = assay: Antifungal activity against Cryptococcus neoformans NR41298 assessed as reduction in fungal growth incubated for 48 hrs by CLSI based broth microdilution method; format: functional
[Candida] auris [42] = Antifungal activity against fluconazole-resistant Candida auris 384 assessed as reduction in fungal growth incubated for 24 hrs by CLSI based broth microdilution method; format: functional; conditions: Candidozyma auris
Nakaseomyces glabratus [43] = assay: Antifungal activity against Candida glabrata ATCC MYA-2950 assessed as reduction in fungal growth incubated for 24 hrs by CLSI based broth microdilution method; format: functional

Cc1nc(-c2ccc(C(C)(C)C)cc2)sc1-c1nnc(N[C@@H]2CCCC[C@@H]2N)o1 (relative stereo)
selectivity ratio [1]: ≤ 64
MIC (Escherichia coli [2]): > 64 µg/mL
MIC [3]: 1 µg/mL (≈ 2.43 µM)
selectivity ratio [4]: ≤ 64
MIC (Lactobacillus gasseri): 128 µg/mL (≈ 311 µM)
MIC (Aspergillus fumigatus [5]): 4 µg/mL (≈ 9.72 µM)
selectivity ratio [6]: ≤ 64
MIC (Pichia kudriavzevii [7]): 2 µg/mL (≈ 4.86 µM)
MIC (Escherichia coli [8]): > 64 µg/mL
MIC (Candida parapsilosis [9]): 1 µg/mL (≈ 2.43 µM)
selectivity ratio [10]: ≤ 64
Activity (Candida albicans [11]): Active
MIC (Candida albicans [12]): 8 µg/mL (≈ 19.4 µM)
MIC (Candida albicans [13]): 1 µg/mL (≈ 2.43 µM)
selectivity ratio [14]: ≤ 64
MIC (Candida parapsilosis [15]): 1 µg/mL (≈ 2.43 µM)
selectivity ratio [16]: ≤ 64
MIC (Cryptococcus neoformans [17]): 1 µg/mL (≈ 2.43 µM)
selectivity ratio [18]: ≤ 64
Activity (Candida albicans [19]): Active
selectivity ratio [20]: ≤ 64
MIC (Pichia kudriavzevii [21]): 1 µg/mL (≈ 2.43 µM)
MIC (Aspergillus fumigatus [22]): 8 µg/mL (≈ 19.4 µM)
selectivity ratio [23]: ≤ 64
CC50 at 2 h [24]: > 64 µg/mL
selectivity ratio [25]: ≤ 64
selectivity ratio [26]: ≤ 64
selectivity ratio [27]: ≤ 64
selectivity ratio [28]: ≤ 64
MIC (Nakaseomyces glabratus [29]): 0.5 µg/mL (≈ 1.21 µM)
selectivity ratio [30]: ≤ 64
selectivity ratio [31]: ≤ 64
selectivity ratio [32]: ≤ 64
selectivity ratio [33]: ≤ 64
selectivity ratio [34]: ≤ 64
selectivity ratio [35]: ≤ 64
selectivity ratio [36]: ≤ 64
MIC ([Candida] auris [37]): 2 µg/mL (≈ 4.86 µM)
selectivity ratio [38]: ≤ 64
MIC (Candida albicans [39]): 8 µg/mL (≈ 19.4 µM)
MIC ([Candida] auris [40]): 4 µg/mL (≈ 9.72 µM)
MIC (Cryptococcus neoformans [41]): 2 µg/mL (≈ 4.86 µM)
MIC ([Candida] auris [42]): 4 µg/mL (≈ 9.72 µM)
MIC (Nakaseomyces glabratus [43]): 0.125 µg/mL (≈ 0.304 µM)

— ChEMBL document CHEMBL4680171, “Oxadiazolylthiazoles as novel and selective antifungal agents” (Eur J Med Chem, 2020)
